Measured values as given in patent publication US6365628B1 (Thia Medica AS, priority 1998, dated 2002).

Legend:
dogs = experiment: 28 days toxicity study in dogs (GLP), oral TTA; type: in vivo, dog
Source text: A 28 days toxicity study in dogs according to GLP guide-lines has been performed by Corning Hazleton (Europe), England. […] Some lipid related parameters were lowered in the animals given high dosages. This is consistent with the pharmacological activity of TTA.

Salmonella typhimurium = experiment: Test for mutagenic activity in Salmonella typhimurium strains; type: cell-based; settings: 3-1000 mg/plate (TTA) 2-5000 mg/plate (TSA)
Source text: (§1) Tests for mutagenic activity have been performed by Covance Laboratories Limited, England. […] Furthermore, TTA was not mutagenic when tested in mouse lymphoma cells […] L5178Y.

Escherichia coli = experiment: Test for mutagenic activity in Escherichia coli strains; type: cell-based; settings: 3-1000 mg/plate (TTA) 2-5000 mg/plate (TSA)
Source text: as §1

[1] = system: mouse lymphoma cells, L5178Y; experiment: Mutagenicity test in mouse lymphoma cells L5178Y; type: cell-based; settings: 2.5-50 mg/ml
Source text: as §1

Wistar rats = experiment: Lipid lowering effect in normal Wistar rats (Example 4); type: in vivo, rat; settings: gavage once daily for 7 days, dose 150 mg/day/kg body weight
Method: Phospholipids were measured by the enzymatic method of bioMérieux, Marcy-l {grave over ( )}Etoile, France, Triacylglycerol by the Technicon Method no. SA4-0324L90, USA and Cholesterol by the Technicon Method no. SA4-0305L90, USA.
Male Wistar rats, weighing 180-200 g at the start of the experiment, were housed individually in metal wire cages in a room maintained at 12 h light-dark cycles and a constant temperature of 20±3° C. The animals were acclimatised for one week under these conditions before the start of the experiments.
TTA, TSA and eicosapentaenoic acid (EPA) were suspended in 0.5% (w/v) carboxymethyl cellulose (CMC). Six animals were used for each treatment, and a 0.5% CMC solution was administrated to the rats as control. After administration of the test compound, the rats were fasted for 12 hours and anaesthetised with haloethan. The EPA and the fatty acid derivatives were administered by gastric intubation (gavage) once daily for 7 days. Blood samples were collected by cardiac puncture, and lipid concentrations in plasma were determined as outlined in the method section.

[2] = system: high fat diet fed Wistar Charles River rats; experiment: High fat diet with or without TTA for three weeks, adipose tissue weights (Example 5); type: in vivo, rat; settings: high fat diet + 0.4% TTA for three weeks, mean ± SEM
Method: Male Wistar Charles River rats weighing 280-358 grams were purchased from AnLab Ltd. (Prague, Czech Republic) and housed in wire-mesh cages in a temperature (22±1° C.) and light-controlled (light from 7:00 a.m. to 7:00 p.m.) room. They were given free access to chow and water. Three rats were housed per cage. Weight gain and food intake were recorded daily.
High Fat (HF): 1.9% gelatin, 5.7% wheat bran, 7.7% vitamins and minerals, 25.4% corn starch, 25.7% casein, 26.8% beef tallow and 7.1% sunflower oil.
HF+TTA: Same+0.4% TTA dissolved in the beef tallow.
Male Wistar Charles River rats (280-360 g) were fed 3 different diets (see methods) for 3 weeks ad libitum. Afterwards, they were killed by decapitation, liver and epididymal adipose tissue pads were dissected out and weighed.
Feeding the Wistar rats the high fat diet thus increased the epididymal and retroperitoneal fad pad weight.

male dogs = experiment: Body weights of male dogs treated for 4 weeks (Example 10); type: in vivo, dog; settings: 500 mg/kg/day orally in capsules
Method: 3 male dogs (4-6 months old) were housed singly during the days. Each animal was offered 400 g of SQC Diet A each morning after dosing and any residue diet was removed in the afternoon. The drug was administered orally in capsules once daily for 28 days.

[3] = system: obese Zucker (fa/fa) rats; experiment: Liver mitochondrial fatty acid oxidation, CPT-I and CPT-II after TTA feeding (Example 16); type: in vivo, rat; settings: chow with 0.15% TTA
Method: Freshly isolated livers from individual old Zucker rats, were homogenised in ice-cold sucrose buffer (0.25 M sucrose, 10 mM HEPES (pH 7.4) and 2 mM EDTA). Post-nuclear and mitochondrial fractions were prepared using preparative differential centrifugation according to DeDuve et al. (De Duve, C., et al., Biochem. J., 60, 604-617 1955.) Modifications, purity and yield were as described earlier (Garras, A., et al., Biochim. Biophys. Acta, 1255, 154-160 1995.). Acid soluble products were measured in post-nuclear and mitochondrial enriched fractions, using [1-^14C]-palmitoyl-CoA and [1-^14C]-palmitoyl-L-carnitine (Radiochemical Centre, Amersham, England) as substrates as described earlier (Willumsen, N., et al., J. Lipid Res., 34, 13-22 1993. Carnitine palmitoyltransferase-I and -II activities were measured in the post-nuclear and mitochondrial fractions essentially as described by Bremer (Bremer, J., Biochim. Biophys. Acta, 665, 628-631 1981.) and 3-hydroxy-3-methylglutharyl-CoA synthase was measured according to Clinkenbeard et al. (Clinkenbeard, K. D., et al., J. Biol. Chem, 250, 3108-3116 1975.) in the mitochondrial fractions.
RNA extraction (Chomczynski, P., et al., Anal. Biochem., 162, 156-159 1987.), Northern blot analysis and slot blotting of RNA onto nylon filters, and hybridisation to immobilised RNA were performed as earlier described (Vaagenes, H., et al., Biochem. Pharmacol., 56, 1571-1582 1998.). […]
Obese Zucker (fa/fa) rats were given a standard chow either with (n=6) or without (n=5) 0.15% TTA. […] Fatty acid oxidation rates were measured using [1-^14C]-palmitoyl CoA or [1-^14C]-palmitoyl-L-carnitine as substrates (A) CPT-I (B) and CPT-II (C) were measured in the mitochondrial factions. […] The relative mRNA levels were determined by densiometric scanning of the autoradiograms and the different mRNA levels were normalised to the respective 28S rRNA and the means for the controls were set to 1. […] Values are expressed as the mean±S.D.

Tetradecylthioacetic acid [TTA]
Effect on body weight (dogs; 500 mg/kg/day): body weight loss | Evidence of toxicity (dogs; dose levels of 50 or 500 mg/day/kg): no evidence of toxicity | Tolerability of oral administration (dogs; dose levels up to 500 mg/kg/day): generally well tolerated | Induction of mutations in strains of Salmonella typhimurium (Salmonella typhimurium): did not induce mutations | Induction of mutations in strains of Escherichia coli (Escherichia coli): did not induce mutations | Mutagenicity in mouse lymphoma cells L5178Y [1]: not mutagenic | Plasma lipids (% reduction of control) cholesterol (Wistar rats): 30 % reduction of control | Plasma lipids (% reduction of control) triglycerides (Wistar rats): 45 % reduction of control | Epididymal adipose tissue [2]: 3.1 ± 0.2 g | Epididymal adipose tissue/body weight (%) [2]: 1.0 ± 0.1% | Retroperitoneal adipose tissue [2]: 2.7 ± 0.2 g | Retroperitoneal adipose tissue/body weight (%) [2]: 0.8 ± 0.05% | Mean body weight (kg) (male dogs; week 0): 9,22 ± 1,77 kg | Mean body weight (kg) (male dogs; week 1): 8,95 kg | Mean body weight (kg) (male dogs; week 2): 8,75 ± 1,58 kg | Mean body weight (kg) (male dogs; week 3): 8,58 kg | Mean body weight (kg) (male dogs; week 4): 8,50 ± 1,74 kg | Activity and mRNA levels of CPT-I ([3]; 21 days (FIG. 8B)): increase | Activity and mRNA levels of CPT-II ([3]; 21 days (FIG. 8C)): increase | Increase of liver fatty acid oxidation ([3]; 21 days, palmitoyl-CoA and palmitoyl-L-carnitine as substrates (FIG. 8A)): more than 7 fold
